Experimental data reported in patent publication US20240025880A1 (CHIESI FARMACEUTICI S.P.A., priority 2020, published 2024).
Like-named read-outs stand apart in the source and are kept apart here.

Assays:
h P2X2/3 = molecular target: T1, h P2X2/3 (Homo sapiens, UniProt P56373+Q9UBL9); assay: In vitro electrophysiology assay for P2X2/3 (same protocol, 10 μM ATP agonist); type: cell-based; conditions: Table 3, mean current seven seconds after agonist, read-out: h P2X2/3 (pIC50 range of activity) (converted)
T1 construct: host or cells: cells not described; same protocol as the P2X3 assay
T1 sequence (P56373 1-397): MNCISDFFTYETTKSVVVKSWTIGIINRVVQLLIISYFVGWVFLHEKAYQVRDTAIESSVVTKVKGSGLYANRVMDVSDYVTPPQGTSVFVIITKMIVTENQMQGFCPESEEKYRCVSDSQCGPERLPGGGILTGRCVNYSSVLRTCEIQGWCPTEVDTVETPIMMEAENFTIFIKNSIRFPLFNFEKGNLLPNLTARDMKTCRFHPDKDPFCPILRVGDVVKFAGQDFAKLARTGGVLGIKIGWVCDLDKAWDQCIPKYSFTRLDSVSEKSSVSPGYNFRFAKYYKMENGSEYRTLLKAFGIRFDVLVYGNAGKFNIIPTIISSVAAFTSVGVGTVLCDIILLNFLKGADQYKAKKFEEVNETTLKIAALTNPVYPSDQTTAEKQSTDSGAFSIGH
T1 sequence (Q9UBL9 1-471): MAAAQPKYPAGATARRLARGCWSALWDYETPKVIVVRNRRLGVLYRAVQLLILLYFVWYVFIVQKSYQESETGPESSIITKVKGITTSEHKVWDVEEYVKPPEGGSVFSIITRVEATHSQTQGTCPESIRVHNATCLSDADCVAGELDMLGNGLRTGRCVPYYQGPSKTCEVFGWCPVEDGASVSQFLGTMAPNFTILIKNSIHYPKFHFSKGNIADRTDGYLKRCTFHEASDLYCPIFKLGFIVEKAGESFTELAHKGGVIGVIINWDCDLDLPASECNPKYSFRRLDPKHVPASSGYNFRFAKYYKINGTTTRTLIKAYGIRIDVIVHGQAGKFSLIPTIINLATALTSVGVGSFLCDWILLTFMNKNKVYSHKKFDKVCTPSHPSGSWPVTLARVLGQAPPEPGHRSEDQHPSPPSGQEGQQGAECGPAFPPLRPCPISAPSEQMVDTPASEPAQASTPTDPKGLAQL
Procedure: Cells expressing P2X3 receptors were grown according to standard practice and maintained at 37° C. in a 5% humidified CO2 atmosphere. The cells were seeded into T175 flask 2 days prior to the day of the assay and dissociated from the flasks using TrypLE when grown to confluence of 80-90%. The dissociated cells were resuspended in serum free media at a cell density of 3×10^6 cells/ml and loaded onto the Sophion Qube automated patch-clamp system. The extracellular assay buffer contained 145 mM NaCl, 4 mM KCl, 2 mM CaCl2, 1 mM MgCl2, 10 mM HEPES, and 10 mM glucose at pH 7.4. The intracellular assay solution contained 140 mM CsF, 10 mM NaCl, 10 mM EGTA, 10 mM HEPES at pH 7.2. Agonist stock solutions were prepared in H2O and diluted in bath solution prior to use. All antagonists were prepared as 10 mM stock solutions in DMSO and diluted in bath solution prior to use. All experiments were performed under the whole-cell patch clamp configuration at room temperature with 384 individual cells being voltage clamped at −60 mV simultaneously on the Sophion Qube instrument. Two baseline responses were established with the application of α,β-MeATP (800 nM), with the subsequent agonist applications being washed out using extracellular assay buffer containing 0.5 U/ml apyrase. Following the second agonist application, antagonist was incubated in the absence of α,β-MeATP for 10 minutes. After antagonist preincubation, 800 nM α,β-MeATP and antagonist were co-administered to determine the inhibitory effect of the antagonist. One concentration of an antagonist was assessed against a single cell, with different concentrations of the antagonist applied to other cells on the 384 recording substrate. The control P2X3 current amplitude was taken from the peak current amplitude from the second agonist response prior to preincubation with antagonist. The peak P2X3 current amplitude in the presence of antagonist was used to calculate the inhibitory effect at each concentration of the antagonist according to the following equation: […]
In vitro Electrophysiology Assay for P2X2/3
Representative compound of the present invention have been also tested for P2X2/3 receptor.
The same assay protocol was used for the P2X2/3 assay as the P2X3 assay with two modifications: 1) 10 μM ATP was used as the agonist; and 2) the mean current amplitude was measured seven seconds after the application of agonist.

h P2X3 = molecular target: T2, h P2X3 (Homo sapiens, UniProt P56373); assay: In vitro electrophysiology assay for P2X3 (automated whole-cell patch clamp, α,β-MeATP agonist); type: cell-based; conditions: 800 nM α,β-MeATP, peak current, read-out: h P2X3 (pIC50 range of activity) (converted)
T2 sequence (P56373 1-397): T1 sequence (P56373 1-397)
Procedure, shortened: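 Automated whole-cell patch clamp of P2X3-expressing cells at −60 mV, room temperature, pH 7.4 bath with CsF internal solution. Antagonist preincubated 10 min, then co-applied with 800 nM α,β-MeATP; peak current inhibition versus second agonist response, ten concentrations, IC50 from four-parameter fit.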

Row | IC50 (h P2X2/3) | IC50 (h P2X3; Table 2) | IC50 (h P2X3; Table 3) | Compound
1 | 316 to 3160 nM | < 316 nM | < 316 nM | Cc1nc([C@@H](C)Nc2ncnc3c(S(=O)(=O)N4CCC(F)(F)C4)cc(-c4ccc(F)cc4)cc23)no1 [Example 17, (R)-8-((3,3-difluoropyrrolidin-1-yl)sulfonyl)-6-(4-fluorophenyl)-N-(1-(5-methyl-1,2,4-oxadiazol-3-yl)ethyl)quinazolin-4-amine]
2 | 316 to 3160 nM | < 316 nM | < 316 nM | C[C@@H](Nc1ncnc2c(OC3CCNC3=O)cc(-c3ccc(F)cc3)cc12)c1cnc(C(F)(F)F)nc1 (stereo partly drawn) [Example 34, 3-((6-(4-fluorophenyl)-4-(((R)-1-(2-(trifluoromethyl)pyrimidin-5-yl)ethyl)amino)quinazolin-8-yl)oxy)pyrrolidin-2-one]
